Data on nine compounds can be found in patent publication US20080064718A1, “INHIBITORS OF PROTEIN TYROSINE KINASE ACTIVITY” (priority 2006, published 2008).

pIC50: −log10 of the molar value.

One test has as its system A549. As to the kind of experiment: A549 inhibition of wound healing. The note with it: Homo sapiens; A549 cells; read-out: A549 INHIB WND ING IC50 UM. Type of test: cell-based.
One may read the pIC50 as −log10 of the IC50, conventionally taken in molar units. For `Cn1cnc(-c2cc3nccc(Oc4ccc(NC(=O)c5cnn(-c6ccccc6)c5C(F)(F)F)cc4F)c3s2)c1`, the pIC50 was 6.30 to 6.60.

For the compound `O=C(Nc1ccc(Oc2ccnc3cc(-c4cnn(C5CCNCC5)c4)sc23)c(F)c1)N1CCN(c2ccccc2)C1=O`, the pIC50 is below 6.00.

Consider `COC[C@H](C)NCc1ccc(-c2cc3nccc(Oc4ccc(NC(=O)N5CCN(c6ccccc6)C5=O)cc4F)c3s2)cc1`, for which the pIC50 is above 6.60.

As for `C=CCN1CCN(C(=O)Nc2ccc(Oc3ccnc4cc(-c5cn(CC)cn5)sc34)c(F)c2)C1=O`, the negative logarithm of the IC50 (pIC50) was 6.30 to 6.60.

With `COC[C@H](C)NCc1cccc(-c2cc3nccc(Oc4ccc(NC(=O)N5CCN(c6ccccc6)C5=O)cc4F)c3s2)c1`, the pIC50 is 6.30 to 6.60.

For `COCCNCc1ccc(-c2cc3nccc(Oc4ccc(NC(=O)c5cnn(-c6ccccc6)c5C(F)(F)F)cc4F)c3s2)nc1`, the negative-log IC50 (pIC50) is 6.30 to 6.60.

On to `O=C(NNC(=O)c1ccccc1)Nc1ccc(Oc2ccnc3cc(C4=CCNCC4)sc23)c(F)c1`, for which the negative logarithm of the IC50 (pIC50) was below 6.00.

Turning to `O=C(O)c1ccc(-c2cc3nccc(Oc4ccc(NC(=O)c5cnn(-c6ccccc6)c5C(F)(F)F)cc4F)c3s2)nc1`, the pIC50 was below 6.00.

In the case of `Cn1ccnc1-c1cc2nccc(Oc3ccc(NC(=O)c4cccc(-c5ccccc5)c4F)cc3F)c2s1`, the pIC50 was 6.30 to 6.60.

The target in another test is recombinant human c-Met/HGF receptor (Homo sapiens, UniProt P08581). The test is described as follows: In vitro receptor tyrosine kinase assay, c-Met/HGF receptor (DELFIA).
Chain of recombinant human c-Met/HGF receptor (P08581 1078-1337): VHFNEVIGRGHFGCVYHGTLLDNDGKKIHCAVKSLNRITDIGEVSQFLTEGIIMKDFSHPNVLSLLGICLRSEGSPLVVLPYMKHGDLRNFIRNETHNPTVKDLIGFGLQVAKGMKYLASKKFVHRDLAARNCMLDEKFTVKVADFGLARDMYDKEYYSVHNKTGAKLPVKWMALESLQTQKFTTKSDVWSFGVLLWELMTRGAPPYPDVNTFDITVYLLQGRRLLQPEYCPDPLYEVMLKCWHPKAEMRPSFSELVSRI
Conditions: not given
`Cn1cnc(-c2cc3nccc(Oc4ccc(NC(=O)c5cnn(-c6ccccc6)c5C(F)(F)F)cc4F)c3s2)c1`: the pIC50 was above 6.60.

Consider `O=C(Nc1ccc(Oc2ccnc3cc(-c4cnn(C5CCNCC5)c4)sc23)c(F)c1)N1CCN(c2ccccc2)C1=O`, for which the pIC50 was above 6.60.

For `COC[C@H](C)NCc1ccc(-c2cc3nccc(Oc4ccc(NC(=O)N5CCN(c6ccccc6)C5=O)cc4F)c3s2)cc1`, the pIC50 was above 6.60.

Consider `C=CCN1CCN(C(=O)Nc2ccc(Oc3ccnc4cc(-c5cn(CC)cn5)sc34)c(F)c2)C1=O`, for which the pIC50 was above 6.60.

For `COC[C@H](C)NCc1cccc(-c2cc3nccc(Oc4ccc(NC(=O)N5CCN(c6ccccc6)C5=O)cc4F)c3s2)c1`, the pIC50 is above 6.60.

On to `COCCNCc1ccc(-c2cc3nccc(Oc4ccc(NC(=O)c5cnn(-c6ccccc6)c5C(F)(F)F)cc4F)c3s2)nc1`, for which the negative logarithm of the IC50 (pIC50) was above 6.60.

As to `O=C(NNC(=O)c1ccccc1)Nc1ccc(Oc2ccnc3cc(C4=CCNCC4)sc23)c(F)c1`, the pIC50 was 6.30 to 6.60.

Consider `O=C(O)c1ccc(-c2cc3nccc(Oc4ccc(NC(=O)c5cnn(-c6ccccc6)c5C(F)(F)F)cc4F)c3s2)nc1`, for which the negative logarithm of the IC50 (pIC50) is above 6.60.

`Cn1ccnc1-c1cc2nccc(Oc3ccc(NC(=O)c4cccc(-c5ccccc5)c4F)cc3F)c2s1`: the negative-log IC50 (pIC50) is above 6.60.

The test system of another test is DU145. As to the kind of experiment: DU145 scattering. The note with it: Homo sapiens, DU-145; DU145 cells; read-out: CMET DU145 SCATT HEAL- IC50 UM. Type of test: cell-based.
For `Cn1cnc(-c2cc3nccc(Oc4ccc(NC(=O)c5cnn(-c6ccccc6)c5C(F)(F)F)cc4F)c3s2)c1`, the negative-log IC50 (pIC50) is below 6.00.

For the compound `O=C(Nc1ccc(Oc2ccnc3cc(-c4cnn(C5CCNCC5)c4)sc23)c(F)c1)N1CCN(c2ccccc2)C1=O`, the pIC50 was 6.30 to 6.60.

In the case of `COC[C@H](C)NCc1ccc(-c2cc3nccc(Oc4ccc(NC(=O)N5CCN(c6ccccc6)C5=O)cc4F)c3s2)cc1`, the pIC50 is above 6.60.

For the compound `C=CCN1CCN(C(=O)Nc2ccc(Oc3ccnc4cc(-c5cn(CC)cn5)sc34)c(F)c2)C1=O`, the pIC50 is 6.30 to 6.60.

As for `COC[C@H](C)NCc1cccc(-c2cc3nccc(Oc4ccc(NC(=O)N5CCN(c6ccccc6)C5=O)cc4F)c3s2)c1`, the negative-log IC50 (pIC50) is 6.30 to 6.60.

Regarding `COCCNCc1ccc(-c2cc3nccc(Oc4ccc(NC(=O)c5cnn(-c6ccccc6)c5C(F)(F)F)cc4F)c3s2)nc1`, the pIC50 is 6.30 to 6.60.

Take `O=C(NNC(=O)c1ccccc1)Nc1ccc(Oc2ccnc3cc(C4=CCNCC4)sc23)c(F)c1`: the negative-log IC50 (pIC50) is below 6.00.

In the case of `O=C(O)c1ccc(-c2cc3nccc(Oc4ccc(NC(=O)c5cnn(-c6ccccc6)c5C(F)(F)F)cc4F)c3s2)nc1`, the pIC50 is below 6.00.

In the case of `Cn1ccnc1-c1cc2nccc(Oc3ccc(NC(=O)c4cccc(-c5ccccc5)c4F)cc3F)c2s1`, the pIC50 is below 6.00.

For a further test, the target named is T1, VEGF receptor KDR (Homo sapiens, UniProt P35968).
T1 construct: made in house; host or cells: Sf9 cells (Spodoptera frugiperda), recombinant baculovirus
T1 sequence (P35968 806-1356): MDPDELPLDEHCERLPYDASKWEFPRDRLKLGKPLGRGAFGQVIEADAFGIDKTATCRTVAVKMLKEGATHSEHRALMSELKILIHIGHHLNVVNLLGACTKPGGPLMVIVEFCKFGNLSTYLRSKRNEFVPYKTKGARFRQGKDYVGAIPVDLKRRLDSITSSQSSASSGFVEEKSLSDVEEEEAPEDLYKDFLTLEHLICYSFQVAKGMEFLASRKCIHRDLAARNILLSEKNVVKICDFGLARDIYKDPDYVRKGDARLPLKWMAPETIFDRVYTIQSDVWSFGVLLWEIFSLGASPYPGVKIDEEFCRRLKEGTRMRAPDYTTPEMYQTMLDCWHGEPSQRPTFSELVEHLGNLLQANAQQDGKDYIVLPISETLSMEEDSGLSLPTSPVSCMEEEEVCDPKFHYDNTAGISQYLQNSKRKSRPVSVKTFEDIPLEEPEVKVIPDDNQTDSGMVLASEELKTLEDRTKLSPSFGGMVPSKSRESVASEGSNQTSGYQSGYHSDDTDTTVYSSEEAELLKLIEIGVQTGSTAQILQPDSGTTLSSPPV
The test is described as follows: In vitro receptor tyrosine kinase assay, VEGF receptor KDR (DELFIA). Type of test: biochemical. The note with it: GST-VEGFR2 806-1356, ATP 0.6 uM; read-out: VEGFR IC50. The source says:
In the case of VEGF receptor KDR a 1.6-kb cDNA corresponding to the catalytic domain of VEGFR2 or KDR (Genbank accession number AF035121 amino acid 806 to 1356) is cloned into the Pst I site of the pDEST20 Gateway vector (Invitrogen) for the production of a GST-tagged version of that enzyme.
The GST-VEGFR2806-1356 protein is expressed in Sf9 cells (Spodoptera frugiperda) upon infection with recombinant baculovirus construct.
The supernatant is loaded onto a GST-agarose column (Sigma) equilibrated with PBS pH 7.3. Following a four column volume (CV) wash with PBS pH 7.3+1% Triton X-100 and 4 CV wash with buffer B (50 mM Tris pH 8.0, 20% glycerol and 100 mM NaCl), bound proteins are step eluted with 5 CV of buffer B supplemented with 5 mM DTT and 15 mM glutathion. […] Final GST-VEGFR2806-1356 protein preparations concentrations are about 0.7 mg/ml with purity approximating 70%.
Turning to `Cn1cnc(-c2cc3nccc(Oc4ccc(NC(=O)c5cnn(-c6ccccc6)c5C(F)(F)F)cc4F)c3s2)c1`, the pIC50 was below 6.00.

`O=C(Nc1ccc(Oc2ccnc3cc(-c4cnn(C5CCNCC5)c4)sc23)c(F)c1)N1CCN(c2ccccc2)C1=O`: the pIC50 was above 6.60.

In the case of `COC[C@H](C)NCc1ccc(-c2cc3nccc(Oc4ccc(NC(=O)N5CCN(c6ccccc6)C5=O)cc4F)c3s2)cc1`, the pIC50 was above 6.60.

On to `C=CCN1CCN(C(=O)Nc2ccc(Oc3ccnc4cc(-c5cn(CC)cn5)sc34)c(F)c2)C1=O`, for which the negative logarithm of the IC50 (pIC50) was above 6.60.

Regarding `COC[C@H](C)NCc1cccc(-c2cc3nccc(Oc4ccc(NC(=O)N5CCN(c6ccccc6)C5=O)cc4F)c3s2)c1`, the negative-log IC50 (pIC50) was above 6.60.

For the compound `COCCNCc1ccc(-c2cc3nccc(Oc4ccc(NC(=O)c5cnn(-c6ccccc6)c5C(F)(F)F)cc4F)c3s2)nc1`, the pIC50 is below 6.00.

Turning to `O=C(NNC(=O)c1ccccc1)Nc1ccc(Oc2ccnc3cc(C4=CCNCC4)sc23)c(F)c1`, the negative logarithm of the IC50 (pIC50) was above 6.60.

`O=C(O)c1ccc(-c2cc3nccc(Oc4ccc(NC(=O)c5cnn(-c6ccccc6)c5C(F)(F)F)cc4F)c3s2)nc1`: the negative logarithm of the IC50 (pIC50) was below 6.00.

For the compound `Cn1ccnc1-c1cc2nccc(Oc3ccc(NC(=O)c4cccc(-c5ccccc5)c4F)cc3F)c2s1`, the pIC50 is above 6.60.

Another test deals with T2, c-Met (Homo sapiens, UniProt P08581).
T2 construct: endogenous in cells; host or cells: MKN45 gastric carcinoma cells
T2 sequence (P08581 25-1390): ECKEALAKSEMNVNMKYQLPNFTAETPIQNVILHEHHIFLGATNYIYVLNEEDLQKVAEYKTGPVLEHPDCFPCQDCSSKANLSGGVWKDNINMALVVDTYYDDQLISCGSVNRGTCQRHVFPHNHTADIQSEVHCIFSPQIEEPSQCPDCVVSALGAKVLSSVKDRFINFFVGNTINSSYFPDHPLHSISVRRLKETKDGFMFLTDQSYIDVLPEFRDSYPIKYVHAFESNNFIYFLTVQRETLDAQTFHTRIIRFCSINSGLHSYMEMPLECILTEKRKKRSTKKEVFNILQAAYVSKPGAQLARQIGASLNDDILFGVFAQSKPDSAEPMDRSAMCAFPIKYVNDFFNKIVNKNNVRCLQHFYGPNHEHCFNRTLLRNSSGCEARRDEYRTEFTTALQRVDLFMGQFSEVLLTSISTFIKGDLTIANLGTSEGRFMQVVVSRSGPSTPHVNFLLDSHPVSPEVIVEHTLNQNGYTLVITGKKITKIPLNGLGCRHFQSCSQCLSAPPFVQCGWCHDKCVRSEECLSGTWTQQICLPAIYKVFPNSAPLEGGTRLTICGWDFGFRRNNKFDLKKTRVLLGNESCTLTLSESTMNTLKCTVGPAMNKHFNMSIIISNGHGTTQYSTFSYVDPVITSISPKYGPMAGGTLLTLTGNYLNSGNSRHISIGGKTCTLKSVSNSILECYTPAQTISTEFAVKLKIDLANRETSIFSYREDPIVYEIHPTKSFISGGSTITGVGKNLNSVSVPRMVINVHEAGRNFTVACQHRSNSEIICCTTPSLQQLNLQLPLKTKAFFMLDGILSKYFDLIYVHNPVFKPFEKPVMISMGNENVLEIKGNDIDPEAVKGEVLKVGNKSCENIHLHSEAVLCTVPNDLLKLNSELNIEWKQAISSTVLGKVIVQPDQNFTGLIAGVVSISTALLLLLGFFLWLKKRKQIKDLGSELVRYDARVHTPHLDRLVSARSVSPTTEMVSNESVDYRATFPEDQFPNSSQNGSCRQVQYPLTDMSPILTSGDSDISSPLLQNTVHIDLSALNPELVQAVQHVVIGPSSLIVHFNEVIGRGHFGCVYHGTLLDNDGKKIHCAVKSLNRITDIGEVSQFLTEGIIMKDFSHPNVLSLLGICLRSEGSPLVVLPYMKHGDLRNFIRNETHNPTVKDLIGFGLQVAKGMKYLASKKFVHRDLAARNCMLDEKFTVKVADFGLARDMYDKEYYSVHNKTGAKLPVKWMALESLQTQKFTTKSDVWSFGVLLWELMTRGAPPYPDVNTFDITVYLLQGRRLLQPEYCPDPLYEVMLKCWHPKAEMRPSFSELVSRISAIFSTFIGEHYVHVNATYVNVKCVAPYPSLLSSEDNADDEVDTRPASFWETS
As to the kind of experiment: c-Met phosphorylation direct ELISA in MKN45 cells. Format: cell-based. The note with it: 3 h treatment. Here is the method:
Alternatively, the following assay is used to determine inhibition of c-Met phosphorylation.
The c-Met receptor is expressed in numerous cancer cell lines derived from tumors of epithelial origin. In MKN45 gastric carcinoma cells the c-Met gene is amplified, resulting in several-fold overexpression of the receptor and its constitutive activation.
Cell treatments: MKN45 cells are seeded into wells of 96-well plates at a density of 3×10^4 cells/well in RPMI medium supplemented with 10% FBS. […] Inhibitors are added to the medium in triplicate wells at the indicated doses.
After an overnight protein binding incubation at 4° C., lysates are aspirated and wells are blocked for 1 h at 37° C. in TBST supplemented with 5% BSA. Plates are incubated with the primary antibodies anti-phospho-Tyrosine (Millipore, 4G10) diluted 1/15000 in TBST supplemented with 5% BSA for 1 h at room temperature. Plates are washed 3 times on a plate washer (SkanWasher, Molecular Devises), and incubated with the reporter antibody […] (Sigma) diluted 1/15000 in TBST supplemented with 5% BSA, for 1 h at room temperature. Plates are washed 3 times with TBST using on a plate washer and subsequently incubated with chemiluminescent substrate solution (ECL, Roche). Luminescence signal is captured on a Polar Star Optima apparatus (BMG LabTech).
Average values of the triplicate samples are used to prepare IC50 curves using a 4-parameter fit model. These curves are calculated using, for example, GraFit 5.0 software. For assay standardization purpose, an internal control is included on each experimental test plate.
In general terms: In an ELISA, binding on a coated surface is turned into a signal by an enzyme label.
`Cn1cnc(-c2cc3nccc(Oc4ccc(NC(=O)c5cnn(-c6ccccc6)c5C(F)(F)F)cc4F)c3s2)c1` showed a negative-log IC50 (pIC50) of 6.00 to 6.30.

On to `O=C(Nc1ccc(Oc2ccnc3cc(-c4cnn(C5CCNCC5)c4)sc23)c(F)c1)N1CCN(c2ccccc2)C1=O`, for which the pIC50 was above 6.60.

`COC[C@H](C)NCc1ccc(-c2cc3nccc(Oc4ccc(NC(=O)N5CCN(c6ccccc6)C5=O)cc4F)c3s2)cc1` had a negative logarithm of the IC50 (pIC50) above 6.60.

Compound `C=CCN1CCN(C(=O)Nc2ccc(Oc3ccnc4cc(-c5cn(CC)cn5)sc34)c(F)c2)C1=O` gave a negative-log IC50 (pIC50) of 6.30 to 6.60.

Compound `COC[C@H](C)NCc1cccc(-c2cc3nccc(Oc4ccc(NC(=O)N5CCN(c6ccccc6)C5=O)cc4F)c3s2)c1` had a pIC50 above 6.60.

As to `COCCNCc1ccc(-c2cc3nccc(Oc4ccc(NC(=O)c5cnn(-c6ccccc6)c5C(F)(F)F)cc4F)c3s2)nc1`, the pIC50 was 6.30 to 6.60.

`O=C(NNC(=O)c1ccccc1)Nc1ccc(Oc2ccnc3cc(C4=CCNCC4)sc23)c(F)c1` had a negative logarithm of the IC50 (pIC50) below 6.00.

Compound `O=C(O)c1ccc(-c2cc3nccc(Oc4ccc(NC(=O)c5cnn(-c6ccccc6)c5C(F)(F)F)cc4F)c3s2)nc1` showed a pIC50 below 6.00.

As for `Cn1ccnc1-c1cc2nccc(Oc3ccc(NC(=O)c4cccc(-c5ccccc5)c4F)cc3F)c2s1`, the pIC50 was 6.00 to 6.30.
